Tests used:
[1] = Selectivity index, ratio of IC50 for cytotoxicity against human WRL68 cells to IC50 for antimalarial activity against Plasmodium falciparum 3D7 infected in erythrocytes; type: toxicity, cell-based; details: WRL68 cells versus Plasmodium falciparum 3D7 in erythrocytes, read-out: Ratio IC50
[2] = tested on: Plasmodium falciparum; experiment: Antimalarial activity against chloroquine-sensitive ring stage Plasmodium falciparum 3D7 infected in erythrocytes assessed as reduction in parasite growth measured at 48 hrs interval by Giemsa staining based microscopic analysis; type: functional, organism-based; details: 3D7, Erythrocyte
[3] = tested on: Plasmodium falciparum; experiment: Antimalarial activity against chloroquine-resistant ring stage Plasmodium falciparum K1 infected in erythrocytes assessed as reduction in parasite growth measured at 48 hrs interval by Giemsa staining based microscopic analysis; type: functional, organism-based; details: K1, Erythrocyte
[4] = tested on: Plasmodium falciparum; experiment: Resistance index, ratio of IC50 for antimalarial activity against chloroquine resistant Plasmodium falciparum K1 infected in erythrocytes to IC50 for antimalarial activity against chloroquine sensitive Plasmodium falciparum 3D7 infected in erythrocytes; type: functional
[5] = Cytotoxicity against human WRL68 cells assessed as reduction in cell viability incubated for 72 hrs by MTT assay; type: toxicity, cell-based
[6] = Selectivity index, ratio of IC50 for cytotoxicity against human WRL68 cells to IC50 for antimalarial activity against Plasmodium falciparum K1 infected in erythrocytes; type: toxicity, cell-based; details: WRL68 cells versus Plasmodium falciparum K1 in erythrocytes, read-out: Ratio IC50
[7] = tested on: Plasmodium falciparum; experiment: Antimalarial activity against Plasmodium falciparum NF54 incubated for 48 hrs by NBT reagent based assay; type: functional, organism-based; details: NF54, 48 h
[8] = tested on: Plasmodium falciparum; experiment: Antimalarial activity against chloroquine-resistant Plasmodium falciparum K1 incubated for 72 hrs by SYBR green I dye based fluorescence analysis; type: functional, organism-based; details: K1, 72 h
[9] = Selectivity index, ratio of IC50 for cytotoxicity against African green monkey Vero cells to IC50 for antimalarial activity against Plasmodium falciparum W2; type: toxicity, cell-based; details: Vero cells versus Plasmodium falciparum W2, read-out: Ratio IC50

`CCOC(=O)c1nn(CCNc2ccnc3cc(Cl)ccc23)c2c1C(c1ccccc1)C(C#N)=C(N)O2` (stereo not drawn) showed a selectivity ratio [1] of 4360, an IC50 [2] of 0.019 µM and an IC50 [3] of 0.419 µM. For the same compound, the “Ratio IC50” value [4] was 22.39, the IC50 at 72 h [5] was 81.5 µM and the selectivity ratio [6] was 195.

Work on `CCOC(=O)c1nn(CCNc2ccnc3cc(Cl)ccc23)c2c1C(c1ccc(Br)cc1)C(C#N)=C(N)O2` (stereo not drawn) yielded a selectivity ratio [1] of 178, an IC50 [2] of 0.033 µM and an IC50 [3] of 0.019 µM. For the same compound, the “Ratio IC50” value [4] was 0.58, the IC50 at 72 h [5] was 5.85 µM and the selectivity ratio [6] was 309.

`CCOC(=O)c1nn(CCNc2ccnc3cc(Cl)ccc23)c2c1C(c1ccc(O)cc1O)C(C#N)=C(N)O2` (stereo not drawn) gave a selectivity ratio [1] of 1220, an IC50 [2] of 0.019 µM and an IC50 [3] of 0.25 µM. The “Ratio IC50” value [4] was 13.13, the IC50 at 72 h [5] was 23.2 µM and the selectivity ratio [6] was 93.

With `CCOC(=O)c1nn(CCNc2ccnc3cc(Cl)ccc23)c2c1C(c1ccc(OCC)cc1)C(C#N)=C(N)O2` (stereo not drawn) the selectivity ratio [1] was 290, the IC50 [2] was 0.024 µM and the IC50 [3] was 0.086 µM. The “Ratio IC50” value [4] was 3.57, the IC50 at 72 h [5] was 6.98 µM and the selectivity ratio [6] was 81.

For `CCOC(=O)c1nn(CCNc2ccnc3cc(Cl)ccc23)c2c1C(c1c(O)ccc3ccccc13)C(C#N)=C(N)O2` (stereo not drawn), the selectivity ratio [1] was 22, the IC50 [2] was 0.301 µM and the IC50 [3] was 0.02 µM. For the same compound, the “Ratio IC50” value [4] was 0.07, the IC50 at 72 h [5] was 6.69 µM and the selectivity ratio [6] was 334.

In the case of `CCOC(=O)c1nn(CCNc2ccnc3cc(Cl)ccc23)c2c1C(c1cccc(OCC)c1)C(C#N)=C(N)O2` (stereo not drawn), the selectivity ratio [1] is reported as 308, the IC50 [2] is reported as 0.068 µM and the IC50 [3] is reported as 0.026 µM. For the same compound, the “Ratio IC50” value [4] was 0.38, the IC50 at 72 h [5] was 20.9 µM and the selectivity ratio [6] was 815.

In the case of `CCOC(=O)c1nn(CCNc2ccnc3cc(Cl)ccc23)c2c1C(c1ccc(O)cc1)C(C#N)=C(N)O2` (stereo not drawn), the selectivity ratio [1] is reported as 3200, the IC50 [2] is reported as 0.015 µM and the IC50 [3] is reported as 2.75 µM. For the same compound, the “Ratio IC50” value [4] was 180.66, the IC50 at 72 h [5] was 48.6 µM and the selectivity ratio [6] was 18.

For `CCOC(=O)c1nn(CCNc2ccnc3cc(Cl)ccc23)c2c1C(c1ccccn1)C(C#N)=C(N)O2` (stereo not drawn), the selectivity ratio [1] was 4350, the IC50 [2] was 0.021 µM and the IC50 [3] was 0.024 µM. The “Ratio IC50” value [4] was 1.15, the IC50 at 72 h [5] was 90.5 µM and the selectivity ratio [6] was 3780.

For `CCN(CC)CCCC(C)Nc1ccnc2cc(Cl)ccc12` (stereo not drawn) [CHLOROQUINE PHOSPHATE], the IC50 at 72 h [5] was 60.6 µM.

Compound `CCOC(=O)c1nn(CCNc2ccnc3cc(Cl)ccc23)c2c1C(c1ccc(O)c(Br)c1)C(C#N)=C(N)O2` (stereo not drawn) has a selectivity ratio [1] of 2650, an IC50 [2] of 0.023 µM and an IC50 [3] of 0.232 µM. The “Ratio IC50” value [4] was 10, the IC50 at 72 h [5] was 61.6 µM and the selectivity ratio [6] was 265.

`CCOC(=O)c1nn(CCNc2ccnc3cc(Cl)ccc23)c2c1C(c1ccco1)C(C#N)=C(N)O2` (stereo not drawn) showed a selectivity ratio [1] of 1920, an IC50 [2] of 0.025 µM and an IC50 [3] of 0.207 µM. The “Ratio IC50” value [4] was 8.34, the IC50 at 72 h [5] was 47.6 µM and the selectivity ratio [6] was 230.

With `O=C(/C=C/c1ccccc1Br)c1ccc(S(=O)(=O)NCCCNc2ccnc3cc(Cl)ccc23)cc1` the IC50 [7] was 0.1 µM.

For `CCOC(=O)c1nn(CCNc2ccnc3cc(Cl)ccc23)c2c1C(c1ccc([N+](=O)[O-])cc1)C(C#N)=C(N)O2` (stereo not drawn), the selectivity ratio [1] was 563, the IC50 [2] was 0.11 µM and the IC50 [3] was 0.294 µM. The “Ratio IC50” value [4] was 2.92, the IC50 at 72 h [5] was 56.9 µM and the selectivity ratio [6] was 193.

Compound `CCOC(=O)c1nn(CCNc2ccnc3cc(Cl)ccc23)c2c1C(c1ccc(Cl)cc1)C(C#N)=C(N)O2` (stereo not drawn) has a selectivity ratio [1] of 467, an IC50 [2] of 0.026 µM and an IC50 [3] of 0.048 µM. For the same compound, the “Ratio IC50” value [4] was 1.85, the IC50 at 72 h [5] was 12.1 µM and the selectivity ratio [6] was 252.

`CCOC(=O)c1nn(CCNc2ccnc3cc(Cl)ccc23)c2c1C(c1cccc(O)c1)C(C#N)=C(N)O2` (stereo not drawn) showed a selectivity ratio [1] of 3960, an IC50 [2] of 0.017 µM and an IC50 [3] of 1.34 µM. The “Ratio IC50” value [4] was 77.46, the IC50 at 72 h [5] was 68.6 µM and the selectivity ratio [6] was 51.

For `CCOC(=O)c1nn(CCNc2ccnc3cc(Cl)ccc23)c2c1C(c1ccc(C(=O)O)cc1)C(C#N)=C(N)O2` (stereo not drawn), the selectivity ratio [1] was 2280, the IC50 [2] was 0.038 µM and the IC50 [3] was 0.21 µM. The “Ratio IC50” value [4] was 5.53, the IC50 at 72 h [5] was 86.5 µM and the selectivity ratio [6] was 411.

With `CCOC(=O)c1nn(CCNc2ccnc3cc(Cl)ccc23)c2c1C(c1ccc(OC)cc1)C(C#N)=C(N)O2` (stereo not drawn) the selectivity ratio [1] was 6220, the IC50 [2] was 0.021 µM and the IC50 [3] was 0.254 µM. For the same compound, the “Ratio IC50” value [4] was 12.1, the IC50 at 72 h [5] was 131 µM and the selectivity ratio [6] was 514.

With `CCOC(=O)c1nn(CCNc2ccnc3cc(Cl)ccc23)c2c1C(c1cccs1)C(C#N)=C(N)O2` (stereo not drawn) the selectivity ratio [1] was 2570, the IC50 [2] was 0.023 µM and the IC50 [3] was 0.037 µM. The “Ratio IC50” value [4] was 1.62, the IC50 at 72 h [5] was 59.5 µM and the selectivity ratio [6] was 1590.

For `Clc1ccc2c(NCCn3cncc3C3CCCC3)ccnc2c1`, the IC50 [8] was 0.34 µM.

`CCOC(=O)c1nn(CCNc2ccnc3cc(Cl)ccc23)c2c1C(c1ccc(C#N)cc1)C(C#N)=C(N)O2` (stereo not drawn) gave a selectivity ratio [1] greater than 9450, an IC50 [2] of 0.019 µM and an IC50 [3] of 0.037 µM. The “Ratio IC50” value [4] was 1.92, the IC50 at 72 h [5] was greater than 183 µM and the selectivity ratio [6] was greater than 4920.

For `CCOC(=O)c1nn(CCNc2ccnc3cc(Cl)ccc23)c2c1C(c1ccccc1OC)C(C#N)=C(N)O2` (stereo not drawn), the selectivity ratio [1] was 1730, the IC50 [2] was 0.015 µM and the IC50 [3] was 0.592 µM. The “Ratio IC50” value [4] was 39.18, the IC50 at 72 h [5] was 26.1 µM and the selectivity ratio [6] was 44.

In the case of `O=C1c2ccc(N3CCN(CCO)CC3)cc2C(=O)N1CCCNc1ccnc2cc(Cl)ccc12`, the selectivity ratio [9] is reported as greater than 4200.

For `CCOC(=O)c1nn(CCNc2ccnc3cc(Cl)ccc23)c2c1C(c1cccc([N+](=O)[O-])c1)C(C#N)=C(N)O2` (stereo not drawn), the selectivity ratio [1] was 1260, the IC50 [2] was 0.028 µM and the IC50 [3] was 0.106 µM. The “Ratio IC50” value [4] was 3.8, the IC50 at 72 h [5] was 35.4 µM and the selectivity ratio [6] was 333.
